Laboratory results: paper PMC12024912, “Druggability Studies of Benzene Sulfonamide Substituted Diarylamide (E3) as a Novel Diuretic” (Biomedicines, 2025)
Like-named read-outs stand apart in the source and are kept apart here.

Experiments:
[1] = system: rat hyponatremia model caused by SIADH; assay: Rat hyponatremia model caused by SIADH (dDAVP); type: in vivo
Method: The protocol for dDAVP-induced hyponatremia was adapted from a previous study, with tolvaptan chosen as the positive control. Preliminary experiments determined the dose of dDAVP (0.25 ng/h). Under isoflurane anesthesia, a 0.5 μg/mL dDAVP solution was injected subcutaneously using an osmotic minipump (ALZET 2002, Cupertino, CA, USA; 200 μL, low rate of 0.5 μL/h for […]). Rats were housed individually in metabolic cages to collect urine. Before using the pump, they were given 62.5 mL/d 1.0 kcal/mL of liquid food. After pump implantation, the rats received 40 mL of 2.1 kcal/mL of liquid feed daily. The rats were divided into five groups: control group (sham operation), model group (0.5% poloxamer, solvent), 4 mg/kg tolvaptan group, 4 mg/kg E3 group, and 20 mg/kg E3 group. E3 was administered orally every 8 h, while tolvaptan was given intragastrically once daily. At the end of the experiment, the rats were sacrificed.

[2] = Liver microsome metabolic stability, rat; type: in vitro ADME; settings: 60 min incubation, 37 °C
Method: (§1) Plasma from mice, rats, rabbits, and humans was obtained from blood after centrifugation at 3000 r/min for 10 min. Simulated gastric fluid (SGF, pH = 1, containing pepsin) and simulated intestinal fluid (SIF, pH = 6.8, containing trypsin) were configured previously in the experiments. SD rats and mice were collected, and after removing the mucus layer from the small intestine and colon, 20 times the volume of liquid bacterial culture medium was added. An intestinal microbiota suspension was obtained after anaerobic cultivation on a shaking table at 37 °C for 12 h. In the aforementioned systems, E3 was added at a final concentration of 1 μmol/L at 37 °C for different incubation times (0, 10, 20, 30, 60, 120, and 240 min). In liver metabolic stability assays, E3 was incubated with liver microsomes or liver homogenate from mice or rats for 60 min at 37 °C. The stop solution, 5 ng/mL tolbutamide (internal standard, IS) in acetonitrile, was added to stop the metabolic process. Post-centrifugation (18,000× g, 10 min, 4 °C), supernatants were subjected to liquid chromatography–tandem mass spectrometry (LC–MS/MS). Analyte-to-IS peak area ratios quantified residual percentages via Equation (2):Remaining% = (E3peak area/ISpeak area at different time)/(E3peak area/ISpeak area at 0 min) × 100%.(2)

mice [3] = assay: Mouse sperm malformation assay; settings: mouse, in vivo, po, 2000 mg/kg/day
Method: Male mice were randomly divided into three groups: control group (0.5% CMC-Na), E3 2000 mg/kg group, and positive group (50 mg/kg cyclophosphamide (CP), administered via intraperitoneal injection). E3 and the control group were administered once daily by intragastric gavage. All mice received treatment for 5 consecutive days. After the initial dosing period, […], the mice were euthanized, and evaluation of sperm parameters was performed as follows:
Caudal epididymides were dissected into fragments in physiological saline and incubated (37 °C, 5% CO2, 10 min). Spermatozoa were isolated through nylon mesh filtration. Semen parameters were quantified using computer-assisted semen analysis (CASA). Eosin-stained smears (20 μL sperm suspension) were analyzed to examine sperm morphology. […] Sperm shape abnormalities, such as banana, headless, without a hook, amorphous, double-tailed, and fat head, were identified and counted. In addition, the testis was reserved for morphological analysis. The spermatogenesis was graded from 1 to 10 using the Johnsen score.

mice [4] = assay: Long-term (7 d) diuretic activity in mice; type: in vivo, mouse
Method: In a single-dose administration experiment, male wild-type (WT) mice, UT-B^-/- mice, UT-A1^-/- mice, or SD rats were adapted in metabolic cages for 3 d. Food and water were provided ad libitum throughout the experiment. Prior to administration, the bladder of each animal was emptied through gentle abdominal massage, and urine was collected from the metabolic cages every 2 h. Compound E3, suspended in 0.5% CMC-Na at an appropriate concentration, was administered intragastric gavage to the mice or rats (0.16, 0.8, 4, or 20 mg/kg). Vehicle control comprised 0.5% (w/v) CMC-Na. Urinary parameters were determined through the following: volume: Gravimetric analysis (1 g/mL density assumption); osmolality: freezing-point osmometry (Micro-osmometer, […] Associates, Norwood, MA, USA); and urea: diacetyl oxime colorimetry (QuantiChrom® kit, Elabscience, Wuhan, China). In long-term (7 d) diuretic activity experiments, male WT mice, UT-B^-/- mice, UT-A1^-/- mice, and SD rats were acclimatized in metabolic cages (Ugo Basile, Comerio, VA, Italy) for 3 d. Food and water were provided ad libitum throughout the experiment. E3 was suspended in 0.5% CMC-Na and administered at a dose of 4 or 20 mg/kg by intragastric gavage. Urine was collected by metabolic cages every 24 h. Body weight was measured daily. At 4 h after the final administration, a blood sample was obtained by heart puncture. Inner medulla and outer medulla tissue homogenates were prepared, and the supernatant after centrifugation was analyzed for solute concentration and osmolality. Urinary osmolality and urea concentration were measured as above. Serum Na^+, K^+, and Cl^- were measured in a clinical chemistry laboratory, while serum creatinine, ALT, and AST were measured through specific reagent kits (NJJC Bio, Nanjing, China).

[5] = Intestinal microbiota stability, mouse; type: in vitro ADME
Method: as §1

[6] = SIADH rats, E3 4 or 20 mg/kg every 8 h, tolvaptan 4 mg/kg once daily, vs model rats
[7] = UT-B−/− mice, long-term treatment
[8] = mice, oral 20 mg/kg, consecutive administrations

CC(=O)c1ccc(C(=O)Nc2cccc(NS(=O)(=O)c3ccccc3)c2)o1 [Compound E3, 5-acetyl-N-(3-(phenylsulfonamido)phenyl)furan-2-carboxamide]
hyponatremia in SIADH rats ([1]; E3 4 or 20 mg/kg orally every 8 h, tolvaptan 4 mg/kg once daily, vs model): significantly alleviated | serum osmolality [1, 6]: significantly increased | serum sodium concentration [1, 6]: significantly increased | blood urea levels ([1]; SIADH rats, between experimental groups before and after treatment): no significant difference | H&E staining of kidney and liver ([1]; SIADH rats, except dilatation of collecting ducts): normal tissue structures | remaining amount, rat liver microsomes [2]: 61.1% | testicular tissue, H&E staining (mice [3]): no significant differences | diuretic effect (mice [4]; UT-A1−/− mice, long-term treatment): no significant diuretic effect | urine osmolality (mice [4]; [7]): decreased | urine output (mice [4]; [7]): increased | excretion of non-urea solutes (mice [4]; [8]): no significant difference | urine osmolality (mice [4]; [8]): significantly decreased | urine output (mice [4]; [8]): significantly increased | urine urea concentration (mice [4]; [8]): significantly decreased | remaining at 4 h, 1 μmol/L ([5]; colon microbiota suspension, n=3, read-out: Mouse colon microbiota (remaining %)): 89.3% | remaining at 4 h, 1 μmol/L ([5]; small intestine microbiota suspension, n=3, read-out: Mouse small intestine microbiota (remaining %)): 87.3%
